Data from ChEMBL document CHEMBL4665641, “Lead optimization and efficacy evaluation of quinazoline-based BET family inhibitors for potential treatment of cancer and inflammatory diseases” (Bioorg Med Chem Lett, 2019).

Experiments:
[1] = target: T1, Bromodomain-containing protein 4 (Homo sapiens, UniProt O60885); test: Competitive binding affinity to human partial length BRD4 (BD1,2) (N44 to E460 residues) expressed in bacterial expression system by BROMOscan assay
[2] = system: MV4-11; test: Cytotoxicity against human MV4-11 cells assessed as inhibition of cell viability; type: functional, cell-based
[3] = Plasma clearance in CD-1 mouse at 2 mg/kg, iv; type: ADME, organism-based
[4] = Oral bioavailability in CD-1 mouse at 10 mg/kg; type: ADME, organism-based; conditions: CD-1, mouse, in vivo
[5] = Half life in CD-1 mouse at 2 mg/kg, iv; type: ADME, organism-based; conditions: in vivo
[6] = Half life in CD-1 mouse at 10 mg/kg, po; type: ADME, organism-based; conditions: in vivo
[7] = Cmax in CD-1 mouse at 2 mg/kg, iv measured after 5 mins; type: ADME, organism-based; parameters: route intravenous, dose 2 mg/kg; conditions: CD-1, mouse, in vivo, read-out: Cmax
[8] = Cmax in CD-1 mouse at 10 mg/kg, po; type: ADME, organism-based; parameters: route oral, dose 10 mg/kg; conditions: in vivo
[9] = AUC(0 to infinity) in CD-1 mouse at 2 mg/kg, iv; type: ADME, organism-based; parameters: time infinity, route intravenous, dose 2 mg/kg; conditions: in vivo; for AUC(0-inf): CD-1, mouse; for AUC: mouse
[10] = AUC(0 to infinity) in CD-1 mouse at 10 mg/kg, po; type: ADME, organism-based; parameters: route oral, time infinity, dose 10 mg/kg; conditions: CD-1, mouse, in vivo
[11] = Volume of distribution at steady state in CD-1 mouse at 2 mg/kg, iv; type: ADME, organism-based; conditions: in vivo, read-out: Vdss
[12] = target: T1, Bromodomain-containing protein 4; test: Inhibition of human full-length recombinant N-terminal His-tagged BRD4 (2 to 1362 residues) expressed in Sf9 cells using histone H4 peptide containing acetylated lysine residues as substrate preincubated with enzyme for 30 mins followed by incubation with substrate for 30 mins by Alphascreen assay […]
[13] = Stability in mouse liver microsomes assessed as half life; type: ADME, Microsome
[14] = system: Kasumi 1; test: Antitumor activity against human Kasumi-1 cells xenografted in CB17 SCID mouse assessed as tumor volume at 10 mg/kg, po QD for 29 days (reference value: 1734 +/- 220 mm3); type: functional; conditions: time 29 day
[15] = system: Kasumi 1; test: Antitumor activity against human Kasumi-1 cells xenografted in CB17 SCID mouse assessed as tumor weight at 10 mg/kg, po QD for 29 days (reference value: 2.1+/- 0.3 g); type: functional; conditions: time 29 day
[16] = system: Kasumi 1; test: Antitumor activity against human Kasumi-1 cells xenografted in CB17 SCID mouse assessed as inhibition of tumor growth at 10 mg/kg, po QD for 29 days; type: functional; conditions: Kasumi 1, po, 696 h, time 29 day, read-out: TGI

CNC(=O)C1CCN(c2nc(N3CCOC[C@@H]3c3ccccc3)c3cc(-c4c(C)noc4C)ccc3n2)CC1
Kd [1]: 73 nM
IC50 [2]: 970 nM

Cn1cc(-c2ccc3nc(-c4cnn(CC(C)(C)O)c4)nc(N4CCOC[C@@H]4c4ccc(Cl)cc4)c3c2)ccc1=O
Kd [1]: 119 nM
IC50 [2]: 1140 nM

Cc1noc(C)c1-c1ccc2nc(-c3cnn(CC(C)(C)O)c3)nc(N3CCOC[C@@H]3c3cccs3)c2c1
clearance [3]: 7.3 mL/min/kg
bioavailability [4]: 72%
Kd [1]: 220 nM
IC50 [2]: 1950 nM
half-life [5]: 1.4 h
half-life [6]: 2.4 h
Cmax [7]: 1580 ng/mL
Cmax ([8]; CD-1, mouse, read-out: Cmax): 2220 ng/mL
AUC(0-inf) [9]: 4940 ng·h/mL
AUC(0-inf) [10]: 17700 ng·h/mL
Vd [11]: 1.01 L/kg
IC50 [12]: 364 nM

CC(=O)N1CCN(c2nc(N3CCOC[C@@H]3c3ccccc3)c3cc(-c4c(C)noc4C)ccc3n2)CC1
Kd [1]: 42 nM
IC50 [2]: 1430 nM

Cn1cc(-c2ccc3nc(-c4cnn(CC(C)(C)O)c4)nc(N4CCOC[C@@H]4c4ccccc4)c3c2)ccc1=O
clearance [3]: 12.3 mL/min/kg
bioavailability [4]: 118%
Kd [1]: 69 nM
IC50 [2]: 740 nM
half-life [5]: 2.2 h
half-life [6]: 1.5 h
Cmax [7]: 1860 ng/mL
Cmax ([8]; CD-1, mouse, read-out: Cmax): 1980 ng/mL
AUC(0-inf) [9]: 2730 ng·h/mL
AUC(0-inf) [10]: 16100 ng·h/mL
Vd [11]: 1.89 L/kg
IC50 [12]: 57 nM

Cn1cc(-c2ccc3nc(-c4cnn(CC(C)(C)O)c4)nc(N4CCOC[C@@H]4C4CC4)c3c2)ccc1=O
Kd [1]: 2200 nM
IC50 [2]: 2350 nM

Cn1cc(-c2ccc3nc(-c4cnn(CC(C)(C)O)c4)nc(N4CCOC[C@@H]4C4CCCCC4)c3c2)ccc1=O
Kd [1]: 25 nM
IC50 [2]: 530 nM

Cc1noc(C)c1-c1ccc2nc(-c3cnn(CC(C)(C)O)c3)nc(N3CCOC[C@@H]3C3CCCCC3)c2c1
Kd [1]: 123 nM
IC50 [2]: 1430 nM
t1/2 [13]: 0.067 h

Cc1noc(C)c1-c1ccc2nc(C(=O)NC3CCN(C)CC3)nc(N3CCOC[C@@H]3c3ccccc3)c2c1
Kd [1]: 210 nM
IC50 [2]: 1600 nM

CNC(=O)Cn1cc(-c2nc(N3CCOC[C@@H]3c3ccccc3)c3cc(-c4c(C)noc4C)ccc3n2)cn1
Kd [1]: 85 nM
IC50 [2]: 1010 nM

Cc1noc(C)c1-c1ccc2nc(-c3cnn(CC(C)(C)O)c3)nc(N3CCOC[C@@H]3c3ccc(F)cc3)c2c1
clearance [3]: 5.9 mL/min/kg
bioavailability [4]: 90%
Kd [1]: 58 nM
IC50 [2]: 1270 nM
half-life [5]: 2.6 h
half-life [6]: 2.8 h
Cmax [7]: 1590 ng/mL
Cmax ([8]; CD-1, mouse, read-out: Cmax): 2080 ng/mL
AUC(0-inf) [9]: 5790 ng·h/mL
AUC(0-inf) [10]: 26100 ng·h/mL
Vd [11]: 1.47 L/kg
t1/2 [13]: 0.867 h
IC50 [12]: 13 nM

Cc1noc(C)c1-c1ccc2nc(-c3cnn(CC(C)(C)O)c3)nc(N3CCOC[C@H]3c3ccccc3)c2c1
Kd [1]: 260 nM
IC50 [2]: 1730 nM

Cc1noc(C)c1-c1ccc2nc(-c3cnn(CC(=O)N(C)C)c3)nc(N3CCOC[C@@H]3c3ccccc3)c2c1
Kd [1]: 110 nM
IC50 [2]: 1800 nM

Cc1noc(C)c1-c1ccc2nc(N3CCC4(CCC(=O)N4C)CC3)nc(N3CCOC[C@@H]3c3ccccc3)c2c1
Kd [1]: 51 nM
IC50 [2]: 1380 nM

Cc1noc(C)c1-c1ccc2nc(-c3cnn(CCO)c3)nc(N3CCOC[C@@H]3c3ccccc3)c2c1
Kd [1]: 99 nM

Cc1noc(C)c1-c1ccc2nc(-c3cnn(CC(C)(C)O)c3)nc(N3CCOC[C@@H]3c3ccc(Cl)cc3)c2c1
clearance [3]: 5.9 mL/min/kg
bioavailability [4]: 44%
Kd [1]: 305 nM
IC50 [2]: 1600 nM
half-life [5]: 2.4 h
half-life [6]: 2.8 h
Cmax [7]: 1800 ng/mL
Cmax ([8]; CD-1, mouse, read-out: Cmax): 1120 ng/mL
AUC(0-inf) [9]: 5720 ng·h/mL
AUC(0-inf) [10]: 12600 ng·h/mL
Vd [11]: 1.58 L/kg
IC50 [12]: 155 nM

CC(=O)N1CCN(c2nc(-c3cnn(CC(C)(C)O)c3)nc3ccc(-c4c(C)noc4C)cc23)[C@@H](c2ccccc2)C1
clearance [3]: 7.3 mL/min/kg
bioavailability [4]: 95%
Kd [1]: 81 nM
IC50 [2]: 850 nM
half-life [5]: 1.5 h
half-life [6]: 1.7 h
Cmax [7]: 2450 ng/mL
Cmax ([8]; CD-1, mouse, read-out: Cmax): 3450 ng/mL
AUC(0-inf) [9]: 4640 ng·h/mL
AUC(0-inf) [10]: 21900 ng·h/mL
Vd [11]: 0.72 L/kg
IC50 [12]: 140 nM

Cn1cc(-c2ccc3nc(-c4cnn(CC(C)(C)O)c4)nc(N4CCOC[C@@H]4c4ccc(F)cc4)c3c2)ccc1=O
Kd [1]: 160 nM
IC50 [2]: 870 nM

Cc1noc(C)c1-c1ccc2nc(-c3cnn(CC(N)=O)c3)nc(N3CCOC[C@@H]3c3ccccc3)c2c1
Kd [1]: 120 nM
IC50 [2]: 2020 nM

Cc1noc(C)c1-c1ccc2nc(-c3cnn(CC(C)(C)O)c3)nc(N3CCNC[C@@H]3c3ccccc3)c2c1
Kd [1]: 88 nM
IC50 [2]: 590 nM
AUC [9]: 123 ng·h/mL

Cc1noc(C)c1-c1ccc2nc(-c3cnn(CCO)c3)nc(N3CCOCC3c3ccccc3)c2c1 (stereo unspecified)
Cmax ([8]; mouse): 934 ng/mL
IC50 [12]: 72 nM

Cc1noc(C)c1-c1ccc2nc(-c3cnn(CC(C)(C)O)c3)nc(N3CCOC[C@@H]3C3CCC3)c2c1
Kd [1]: 195 nM
IC50 [2]: 2200 nM
t1/2 [13]: 0.3 h

Cc1noc(C)c1-c1ccc2nc(N3CCN(CCN(C)C)CC3)nc(N3CCOC[C@@H]3c3ccccc3)c2c1
IC50 [2]: 690 nM
AUC [9]: 585 ng·h/mL

Cc1noc(C)c1-c1ccc2nc(N3CCN(CCN(C)C)CC3)nc(N3CCOC[C@H]3c3ccccc3)c2c1
IC50 [2]: 1280 nM

Cc1noc(C)c1-c1ccc2nc(-c3cnn(CC(C)(C)O)c3)nc(N3CCOC[C@@H]3C3CCCC3)c2c1
Kd [1]: 155 nM
IC50 [2]: 1540 nM
t1/2 [13]: 0.033 h

Cc1noc(C)c1-c1ccc2nc(-c3cnn(C(C)(C)CO)c3)nc(N3CCOC[C@@H]3c3ccccc3)c2c1
Kd [1]: 87 nM
IC50 [2]: 1970 nM

Cn1cc(-c2ccc3nc(-c4cnn(CC(C)(C)O)c4)nc(N4CCOC[C@@H]4c4cccs4)c3c2)ccc1=O
clearance [3]: 6.4 mL/min/kg
bioavailability [4]: 83%
Kd [1]: 300 nM
IC50 [2]: 980 nM
half-life [5]: 2.3 h
half-life [6]: 1.6 h
Cmax [7]: 2040 ng/mL
Cmax ([8]; CD-1, mouse, read-out: Cmax): 2090 ng/mL
AUC(0-inf) [9]: 5550 ng·h/mL
AUC(0-inf) [10]: 22900 ng·h/mL
Vd [11]: 1.08 L/kg
IC50 [12]: 165 nM

Cc1noc(C)c1-c1ccc2nc(N3CCC4(CCN(C)C4=O)CC3)nc(N3CCOC[C@@H]3c3ccccc3)c2c1
Kd [1]: 110 nM
IC50 [2]: 1360 nM

Cc1cc(-c2ccc3nc(-c4cnn(CC(C)(C)O)c4)nc(N4CCOC[C@@H]4C4CC4)c3c2)cn(C)c1=O
Kd [1]: 70 nM

Cc1noc(C)c1-c1ccc2nc(-c3cnn(CC(C)(C)O)c3)nc(N3CCN(S(C)(=O)=O)C[C@@H]3c3ccccc3)c2c1
clearance [3]: 6.9 mL/min/kg
bioavailability [4]: 86%
Kd [1]: 68 nM
IC50 [2]: 1130 nM
half-life [5]: 1.4 h
half-life [6]: 1.7 h
Cmax [7]: 2580 ng/mL
Cmax ([8]; CD-1, mouse, read-out: Cmax): 2670 ng/mL
AUC(0-inf) [9]: 4950 ng·h/mL
AUC(0-inf) [10]: 21200 ng·h/mL
Vd [11]: 0.82 L/kg
IC50 [12]: 90 nM

Cc1cc(-c2ccc3nc(-c4cnn(CC(C)(C)O)c4)nc(N4CCOC[C@@H]4c4ccc(F)cc4)c3c2)cn(C)c1=O
clearance [3]: 4.5 mL/min/kg
bioavailability [4]: 123%
Kd [1]: 20 nM
half-life [5]: 2.6 h
half-life [6]: 4.2 h
Cmax [7]: 2260 ng/mL
Cmax ([8]; CD-1, mouse, read-out: Cmax): 3180 ng/mL
AUC(0-inf) [9]: 7400 ng·h/mL
AUC(0-inf) [10]: 45700 ng·h/mL
Vd [11]: 1.08 L/kg
Activity [14]: 977 mm3
Activity [15]: 1.24 g
inhibition in vivo at 10 mg/kg [16]: 41%
IC50 [12]: 6 nM
